Measured values from patent US20190282590A1, “MEDICAMENT FOR TREATMENT AND/OR PROPHYLACTIC TREATMENT OF BREAST CANCER” (HAKMED AB, priority 2016, published 2019).

How the values were obtained:
[1] = format: in vivo
Source text: Since July 2005 369 cases of MBC were identified from the Swedish Cancer Register and each case was matched to five controls (n=[…]) from the general population of the same age and domicile. Medicines with documented side effects of hormonal imbalance or gynecomastia were collected from the Prescribed Drug Register in operation since July 2005. Drug exposure was followed both for cases and controls until the cancer diagnosis or death of the case. Cases and controls with a diagnosis of prostate cancer were excluded. The data were mainly analyzed with conditional logistic regression and Cox regression.
Cox regression and nested case-control analysis were used in analysis of the ever-use variable of any of the included medicines, after the exclusion phases (described below), as well as after the grouping phase and generated study design-specific hazard ratios (HR) and 95% confidence intervals (CI). P-values less than 0.05 were considered statistically significant. All processing of the data and statistical analysis was made using R programming for statistical computing and ended with the effectuation of conditional logistic regression, Cox regression and nested case-control. Using multiple statistical methods provided additional statistical certainty.
In this second line of statistical analysis, the match sets created by Statistics Sweden were kept, using the ID number of the case to connect the five matched controls to each case. All medical use after the time of diagnosis of the case was excluded, which applied also to the controls, meaning that the matched control's medical usage after the date of diagnosis of the case was censored using the predefined match sets. All subjects were classified as non-users until the date of the first prescription of one of the included medicines. […]
The first prescribed medicine for each individual with recorded medical use was selected, since this was likely to be the medicine each individual had used for the longest period of time. […]

[2] = except in skeletal muscle tissue; cited from earlier work
[3] = cited from earlier work
[4] = prevention mainly limited to less severe prostate cancer; cited from earlier work

## COc1cc2nc(N(C)CCCNC(=O)C3CCCO3)nc(N)c2cc1OC (stereo not shown) [Alfuzosin]
[1]
  Association of medication use with risk of MBC (in words): significant correlation to increased risk of MBC

## C[C@]12CCC(=O)C[C@@H]1CC[C@@H]1[C@@H]2CC[C@]2(C)[C@@H](O)CC[C@@H]12 [DHT, dihydrotestosterone]
[2]
  Potency relative to testosterone or other androgens: 3-5 times

## COc1cc2nc(N3CCN(C(=O)C4CCCO4)CC3)nc(N)c2cc1OC (stereo not shown) [Terazosin]
[1]
  Association of medication use with risk of MBC (in words): significant correlation to increased risk of MBC

## C[C@]12C=CC(=O)N[C@@H]1CC[C@@H]1[C@@H]2CC[C@]2(C)[C@@H](C(=O)Nc3cc(C(F)(F)F)ccc3C(F)(F)F)CC[C@@H]12 [dutasteride, (5α,17β)-N-{2,5-Bis(trifluoromethyl)phenyl}-3-oxo-4-azaandrost-1-ene-17-carboxamide]
[1]; register study, 5-ARI users
  Preventive effect on MBC (in words): preventive effect was strongest
[3]; 5 mg daily for 6 months, patients, compared with therapeutic dose 0.5 mg
  Adverse effects in clinical studies: no additional adverse effects
[3]; up to 40 mg/day (80 times the therapeutic dose) for 7 days, healthy volunteers
  Safety of single daily doses: without significant safety concerns
[4]
  Effect on prostate cancer (in words): a better prognosis has been shown
